One test has as its target Rho kinase 2 (ROCK-II) (Homo sapiens, UniProt O75116). Briefly: In vitro Rho kinase inhibitory activity assay (ADP-Glo), Rho kinase 2. The format is biochemical. As to conditions: 10 μM ATP, 25° C., expressed as range of activity. The method, boiled down:
(§1)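 Each kinase (ROCK1 or ROCK2) sat with compound for 30 min at 25 °C before 10 μM ATP started a 1 h reaction on 2.5 μM myelin basic protein (Tris pH 7.5, MgCl2, BSA, DTT, 1% DMSO). ADP formed was read by ADP-Glo luminescence. Dose-response IC50s were converted to Ki by Cheng-Prusoff.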

A further test has as its target Rho kinase 1 (ROCK-I) (Homo sapiens, UniProt Q13464). Description: In vitro Rho kinase inhibitory activity assay (ADP-Glo), Rho kinase 1. The format is biochemical. To be noted: 10 μM ATP, 25° C., expressed as range of activity. The method, boiled down: as §1

Our source for the Ki values is patent US10501461B2, “Tyrosine amide derivatives as Rho-kinase inhibitors” (CHIESI FARMACEUTICI S.P.A., priority 2017, dated 2019).

Sequence of Rho kinase 2 (ROCK-II) (O75116 whole entry): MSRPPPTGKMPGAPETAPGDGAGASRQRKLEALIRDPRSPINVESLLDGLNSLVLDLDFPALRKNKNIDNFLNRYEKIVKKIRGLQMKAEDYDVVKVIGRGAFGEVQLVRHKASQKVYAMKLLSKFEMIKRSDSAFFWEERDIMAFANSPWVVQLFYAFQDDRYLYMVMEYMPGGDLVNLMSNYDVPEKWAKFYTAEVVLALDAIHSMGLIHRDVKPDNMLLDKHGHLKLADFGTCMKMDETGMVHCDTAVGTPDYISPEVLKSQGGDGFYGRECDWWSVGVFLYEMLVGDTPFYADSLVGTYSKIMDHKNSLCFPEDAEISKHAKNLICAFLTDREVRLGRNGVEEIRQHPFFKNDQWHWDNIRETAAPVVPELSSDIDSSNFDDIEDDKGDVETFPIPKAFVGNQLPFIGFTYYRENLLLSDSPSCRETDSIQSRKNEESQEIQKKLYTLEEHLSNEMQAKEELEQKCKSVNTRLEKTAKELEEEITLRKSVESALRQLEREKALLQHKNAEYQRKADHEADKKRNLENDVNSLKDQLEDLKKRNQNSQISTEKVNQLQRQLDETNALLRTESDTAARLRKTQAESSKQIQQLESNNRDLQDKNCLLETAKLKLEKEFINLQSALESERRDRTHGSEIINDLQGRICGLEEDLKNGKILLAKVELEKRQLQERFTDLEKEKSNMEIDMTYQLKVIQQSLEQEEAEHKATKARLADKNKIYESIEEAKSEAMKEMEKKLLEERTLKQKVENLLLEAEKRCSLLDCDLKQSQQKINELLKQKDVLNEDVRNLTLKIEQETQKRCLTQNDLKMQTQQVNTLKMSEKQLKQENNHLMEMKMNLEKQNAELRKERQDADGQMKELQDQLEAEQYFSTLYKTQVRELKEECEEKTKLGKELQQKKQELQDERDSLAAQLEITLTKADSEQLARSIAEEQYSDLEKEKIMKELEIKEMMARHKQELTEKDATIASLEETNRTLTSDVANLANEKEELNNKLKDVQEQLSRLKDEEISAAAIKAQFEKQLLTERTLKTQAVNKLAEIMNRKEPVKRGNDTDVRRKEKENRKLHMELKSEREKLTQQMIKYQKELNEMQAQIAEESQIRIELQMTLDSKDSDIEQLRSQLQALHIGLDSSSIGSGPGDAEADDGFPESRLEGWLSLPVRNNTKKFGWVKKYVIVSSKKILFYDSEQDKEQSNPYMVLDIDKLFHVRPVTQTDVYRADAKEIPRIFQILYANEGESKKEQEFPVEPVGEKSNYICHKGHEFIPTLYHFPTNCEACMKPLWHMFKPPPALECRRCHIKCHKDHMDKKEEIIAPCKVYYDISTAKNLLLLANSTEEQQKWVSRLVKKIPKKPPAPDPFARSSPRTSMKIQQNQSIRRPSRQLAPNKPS
Sequence of Rho kinase 1 (ROCK-I) (Q13464 whole entry): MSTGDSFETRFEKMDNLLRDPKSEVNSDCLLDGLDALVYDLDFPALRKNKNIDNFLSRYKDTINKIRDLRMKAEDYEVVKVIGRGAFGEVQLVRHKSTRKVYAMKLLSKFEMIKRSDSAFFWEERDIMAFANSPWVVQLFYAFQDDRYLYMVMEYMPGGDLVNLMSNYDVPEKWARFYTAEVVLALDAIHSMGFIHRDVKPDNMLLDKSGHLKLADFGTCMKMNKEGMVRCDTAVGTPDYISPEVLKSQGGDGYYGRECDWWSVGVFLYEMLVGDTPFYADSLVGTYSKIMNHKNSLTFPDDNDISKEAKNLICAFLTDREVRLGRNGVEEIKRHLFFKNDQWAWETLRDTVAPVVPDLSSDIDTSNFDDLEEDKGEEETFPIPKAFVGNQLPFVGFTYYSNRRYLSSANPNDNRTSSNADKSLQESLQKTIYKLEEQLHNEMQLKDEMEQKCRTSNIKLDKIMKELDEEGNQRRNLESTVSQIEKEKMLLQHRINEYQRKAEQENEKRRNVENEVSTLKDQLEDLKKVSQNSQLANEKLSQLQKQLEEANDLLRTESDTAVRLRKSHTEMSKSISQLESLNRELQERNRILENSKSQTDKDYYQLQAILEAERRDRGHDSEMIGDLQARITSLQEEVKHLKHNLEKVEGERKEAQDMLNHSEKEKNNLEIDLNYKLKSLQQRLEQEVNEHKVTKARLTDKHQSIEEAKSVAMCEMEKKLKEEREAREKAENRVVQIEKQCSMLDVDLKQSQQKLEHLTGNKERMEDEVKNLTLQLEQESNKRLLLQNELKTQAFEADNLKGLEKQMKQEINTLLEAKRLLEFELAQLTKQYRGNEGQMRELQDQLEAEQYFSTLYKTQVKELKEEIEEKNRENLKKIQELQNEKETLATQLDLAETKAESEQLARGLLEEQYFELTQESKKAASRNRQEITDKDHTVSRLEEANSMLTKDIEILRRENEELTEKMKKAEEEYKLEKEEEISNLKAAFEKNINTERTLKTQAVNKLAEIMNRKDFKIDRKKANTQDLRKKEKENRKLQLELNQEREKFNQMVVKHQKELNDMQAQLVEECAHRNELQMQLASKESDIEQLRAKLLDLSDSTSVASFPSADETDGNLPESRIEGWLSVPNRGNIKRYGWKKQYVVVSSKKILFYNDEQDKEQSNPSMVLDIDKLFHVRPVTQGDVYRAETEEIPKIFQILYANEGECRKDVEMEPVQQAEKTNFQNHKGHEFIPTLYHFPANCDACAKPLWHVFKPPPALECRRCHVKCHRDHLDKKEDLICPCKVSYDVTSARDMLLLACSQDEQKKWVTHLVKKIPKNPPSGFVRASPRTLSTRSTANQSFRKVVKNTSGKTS

What is called Ki is the equilibrium dissociation constant of an inhibitor or competing ligand from its target. Low values mean a stronger hold on the target, high ones a looser hold on the target. Regarding `CC(N)(Cc1ccc(Oc2ccnc3[nH]ccc23)cc1)C(=O)NC1CCOCC1` (stereo not shown) [Example 151, 3-(4-((1H-pyrrolo[2,3-b]pyridin-4-yl)oxy)phenyl)-2-amino-2-methyl-N-(tetrahydro-2H-pyran-4-yl)propanamide], the Ki on Rho kinase 2 (ROCK-II) and at Rho kinase 1 (ROCK-I) was > 30 nM in each case.

With `Cc1c[nH]c2ncnc(Oc3ccc(C[C@H](N)C(=O)N4CCC(S(=O)(=O)c5ccccc5)CC4)cc3F)c12` [Example 127, (S)-2-amino-3-(3-fluoro-4-((5-methyl-7H-pyrrolo[2,3-d]pyrimidin-4-yl)oxy)phenyl)-1-(4-(phenylsulfonyl)piperidin-1-yl)propan-1-one], the Ki on Rho kinase 2 (ROCK-II) and on Rho kinase 1 (ROCK-I) was < 3 nM each time.

Take `Cc1c[nH]c2nccc(Oc3ccc(C[C@H](N)C(=O)NCCc4cnn(-c5ccccc5)c4)cc3F)c12` [Example 56, (S)-2-amino-3-(3-fluoro-4-((3-methyl-1H-pyrrolo[2,3-b]pyridin-4-yl)oxy)phenyl)-N-(2-(1-phenyl-1H-pyrazol-4-yl)ethyl)propanamide]: the Ki at Rho kinase 2 (ROCK-II) and on Rho kinase 1 (ROCK-I) was < 3 nM in each case.

In the case of `Cc1c[nH]c2nccc(Oc3ccc(C[C@H](N)C(=O)N4C[C@@H]5C[C@H]4CN5C)cc3F)c12` [Example 25, (S)-2-amino-3-(3-fluoro-4-((3-methyl-1H-pyrrolo[2,3-b]pyridin-4-yl)oxy)phenyl)-1-((1S,4S)-5-methyl-2,5-diazabicyclo[2.2,1]heptan-2-yl)propan-1-one], the Ki on Rho kinase 2 (ROCK-II) and at Rho kinase 1 (ROCK-I) was < 3 nM in each case.

As to `CN(C)CCNC(=O)[C@H](N)Cc1ccc(Oc2ccnc3[nH]ccc23)cc1` [Example 96, (R)-3-(4-((1H-pyrrolo[2,3-b]pyridin-4-yl)oxy)phenyl)-2-amino-N-(2-(dimethylamino)ethyl)propanamide], the Ki on Rho kinase 2 (ROCK-II) and on Rho kinase 1 (ROCK-I) was > 30 nM throughout.

Turning to `Cc1c[nH]c2nccc(Oc3ccc(CC(N)C(=O)N4CCC(c5ccncc5)C4)cc3F)c12` (racemic) [Example 66, 2-amino-3-(3-fluoro-4-((3-methyl-1H-pyrrolo[2,3-b]pyridin-4-yl)oxy)phenyl)-1-(3-(pyridin-4-yl)pyrrolidin-1-yl)propan-1-one], the Ki on Rho kinase 2 (ROCK-II) and on Rho kinase 1 (ROCK-I) was < 3 nM each time.

Regarding `Cc1c[nH]c2ncnc(Oc3ccc(C[C@H](N)C(=O)N4CCN(C)CC4)cc3F)c12` [Example 118, (S)-2-amino-3-(3-fluoro-4-((5-methyl-7H-pyrrolo[2,3-d]pyrimidin-4-yl)oxy)phenyl)-1-(4-methylpiperazin-1-yl)propan-1-one], the Ki on Rho kinase 2 (ROCK-II) and at Rho kinase 1 (ROCK-I) was 3 to 30 nM in each case.

Consider `Cc1c[nH]c2nccc(Oc3ccc(C[C@H](N)C(=O)N4CCN(Cc5ccccn5)CC4)cc3F)c12` [Example 27, (S)-2-amino-3-(3-fluoro-4-((3-methyl-1H-pyrrolo[2,3-b]pyridin-4-yl)oxy)phenyl)-1-(4-(pyridin-2-ylmethyl)piperazin-1-yl)propan-1-one], for which the Ki at Rho kinase 2 (ROCK-II) and on Rho kinase 1 (ROCK-I) was < 3 nM throughout.

Take `Cc1nc(CN2CCN(C(=O)[C@@H](N)Cc3ccc(Oc4ccnc5[nH]cc(C)c45)c(F)c3)CC2)cs1` [Example 157, (S)-2-amino-3-(3-fluoro-4-((3-methyl-1H-pyrrolo[2,3-b]pyridin-4-yl)oxy)phenyl)-1-(4-((2-methylthiazol-4-yl)methyl)piperazin-1-yl)propan-1-one]: the Ki at Rho kinase 2 (ROCK-II) and at Rho kinase 1 (ROCK-I) was < 3 nM in each case.

Take `N[C@@H](Cc1ccc(Oc2ccnc3[nH]ccc23)c(F)c1)C(=O)Nc1ccccc1` [Example 147, (S)-3-(4-((1H-pyrrolo[2,3-b]pyridin-4-yl)oxy)-3-fluorophenyl)-2-amino-N-phenylpropanamide]: the Ki is < 3 nM on Rho kinase 2 (ROCK-II) and 3 to 30 nM at Rho kinase 1 (ROCK-I).

With `CN1CCC(NC(=O)[C@H](N)Cc2ccc(Oc3ccnc4[nH]ccc34)cc2)CC1` [Example 104, (R)-3-(4-((1H-pyrrolo[2,3-b]pyridin-4-yl)oxy)phenyl)-2-amino-N-(1-methylpiperidin-4-yl)propanamide], the Ki at Rho kinase 2 (ROCK-II) and on Rho kinase 1 (ROCK-I) was > 30 nM throughout.

Regarding `Cc1c[nH]c2nccc(Oc3ccc(C[C@H](N)C(=O)N4CCN(Cc5cncn5C)CC4)cc3F)c12` [Example 158, (S)-2-amino-3-(3-fluoro-4--((3-methyl-1H-pyrrolo[2,3-b]pyridin-4-yl)oxy)phenyl)-1-(4-((1-methyl-1H-imidazol-5-yl)methyl)piperazin-1-yl)propan-1-one], the inhibitory constant (Ki) on Rho kinase 2 (ROCK-II) and on Rho kinase 1 (ROCK-I) was < 3 nM throughout.

Take `Cc1c[nH]c2nccc(Oc3ccc(C[C@H](N)C(=O)N(C)CC4CCN(C)CC4)cc3F)c12` [Example 39, (S)-2-amino-3-(3-fluoro-4-((3-methyl-1H-pyrrolo[2,3-b]pyridin-4-yl)oxy)phenyl)-N-methyl-N-((1-methylpiperidin-4-yl)methyl)propanamide]: the Ki at Rho kinase 2 (ROCK-II) and at Rho kinase 1 (ROCK-I) was 3 to 30 nM throughout.

For the compound `Cc1noc(C2CCN(C(=O)[C@@H](N)Cc3ccc(Oc4ccnc5[nH]cc(C)c45)c(F)c3)C2)n1` (stereo partly drawn) [Example 8, (2S)-2-amino-3-(3-fluoro-4-((3-methyl-1H-pyrrolo[2,3-b]pyridin-4-yl)oxy)phenyl)-1-(3-(3-methyl-1,2,4-oxadiazol-5-yl)pyrrolidin-1-yl)propan-1-one], the Ki on Rho kinase 2 (ROCK-II) and on Rho kinase 1 (ROCK-I) was < 3 nM in each case.

`Cc1c[nH]c2nccc(Oc3ccc(C[C@H](N)C(=O)N4CCN(C(=O)c5cccnc5)CC4)cc3F)c12` [Example 174, (S)-2-amino-3-(3-fluoro-4-((3-methyl-1H-pyrrolo[2,3-b]pyridin-4-yl)oxy)phenyl)-1-(4-nicotinoylpiperazin-1-yl)propan-1-one]: the Ki on Rho kinase 2 (ROCK-II) and at Rho kinase 1 (ROCK-I) was < 3 nM throughout.

For `Cc1c[nH]c2nccc(Oc3ccc(C[C@H](N)C(=O)N4CCc5ccccc5C4)cc3F)c12` [Example 10, (S)-2-amino-1-(3,4-dihydroisoquinolin-2(1H)-yl)-3-(3-fluoro-4-((3-methyl-1H-pyrrolo[2,3-b]pyridin-4-yl)oxy)phenyl)propan-1-one], the inhibition constant (Ki) on Rho kinase 2 (ROCK-II) and on Rho kinase 1 (ROCK-I) was < 3 nM each time.

Turning to `Cc1c[nH]c2nccc(Oc3ccc(C[C@H](N)C(=O)N4CCN(C(=O)C5CCN(C)CC5)CC4)cc3F)c12` [Example 171, (S)-2-amino-3-(3-fluoro-4-((3-methyl-1H-pyrrolo[2,3-b]pyridin-4-yl)oxy)phenyl)-1-(4-(1-methylpiperidine-4-carbonyl)piperazin-1-yl)propan-1-one], the Ki on Rho kinase 2 (ROCK-II) and at Rho kinase 1 (ROCK-I) was 3 to 30 nM each time.

In the case of `Cc1c[nH]c2nccc(Oc3ccc(C[C@@H](N)C(=O)NC4CCOCC4)cc3F)c12` [Example 55, (R)-2-amino-3-(3-fluoro-4-((3-methyl-1H-pyrrolo[2,3-b]pyridin-4-yl)oxy)phenyl)-N-(tetrahydro-2H-pyran-4-yl)propanamide], the Ki at Rho kinase 2 (ROCK-II) and at Rho kinase 1 (ROCK-I) was 3 to 30 nM in each case.

As to `Cc1c[nH]c2nccc(Oc3ccc(C[C@@H](N)C(=O)NCC4CCCCC4)cc3)c12` [Example 140, (R)-2-amino-N-(cyclohexylmethyl)-3-(4-((3-methyl-1H-pyrrolo[2,3-b]pyridin-4-yl)oxy)phenyl)propanamide], the Ki on Rho kinase 2 (ROCK-II) and at Rho kinase 1 (ROCK-I) was 3 to 30 nM throughout.

Take `N[C@@H](Cc1ccc(Oc2ccnc3[nH]cc(-c4cccnc4)c23)cc1)C(=O)N1CCN(Cc2ccccc2)CC1` [Example 194, (S)-2-amino-1-(4-benzylpiperazin-1-yl)-3-(4-((3-(pyridin-3-yl)-1H-pyrrolo[2,3-b]pyridin-4-yl)oxy)phenyl)propan-1-one]: the Ki on Rho kinase 2 (ROCK-II) and on Rho kinase 1 (ROCK-I) was < 3 nM throughout.

Consider `Cc1c[nH]c2nccc(Oc3ccc(C[C@H](N)C(=O)N4C[C@@H](C)N(C)[C@@H](C)C4)cc3F)c12` [Example 17, (S)-2-amino-3-(3-fluoro-4-((3-methyl-1H-pyrrolo[2,3-b]pyridin-4-yl)oxy)phenyl)-1-((3S,5R)-3,4,5-trimethylpiperazin-1-yl)propan-1-one], for which the Ki at Rho kinase 2 (ROCK-II) and at Rho kinase 1 (ROCK-I) was < 3 nM in each case.

Consider `Cc1c[nH]c2nccc(Oc3ccc(C[C@H](N)C(=O)N4CCN5CCOCC5C4)cc3F)c12` (stereo partly drawn) [Example 16, (2S)-2-amino-3-(3-fluoro-4-((3-methyl-1H-pyrrolo[2,3-b]pyridin-4-yl)oxy)phenyl)-1-(hexahydropyrazino[2,1-c][1,4]oxazin-8(1H)-yl)propan-1-one], for which the Ki at Rho kinase 2 (ROCK-II) and at Rho kinase 1 (ROCK-I) was < 3 nM in each case.

Regarding `N[C@@H](Cc1ccc(Oc2ccnc3[nH]ccc23)cc1)C(=O)NCC1CCCCC1` [Example 107, (S)-3-(4-((1H-pyrrolo[2,3-b]pyridin-4-yl)oxy)phenyl)-2-amino-N-(cyclohexylmethyl)propanamide], the Ki on Rho kinase 2 (ROCK-II) and on Rho kinase 1 (ROCK-I) was < 3 nM in each case.

For the compound `CN(CC1CCCCC1)C(=O)[C@H](N)Cc1ccc(Oc2ccnc3[nH]ccc23)cc1` [Example 143, (R)-3-(4-((1H-pyrrolo[2,3-b]pyridin-4-yl)oxy)phenyl)-2-amino-N-(cyclohexylmethyl)-N-methylpropanamide], the Ki at Rho kinase 2 (ROCK-II) and on Rho kinase 1 (ROCK-I) was > 30 nM in each case.

Turning to `N[C@@H](Cc1ccc(Oc2ccnc3[nH]cc(F)c23)cc1)C(=O)N1CCN(Cc2ccccc2)CC1` [Example 114, (S)-2-amino-1-(4-benzylpiperazin-1-yl)-3-(4-((3-fluoro-1H-pyrrolo[2,3-b]pyridin-4-yl)oxy)phenyl)propan-1-one], the Ki at Rho kinase 2 (ROCK-II) and at Rho kinase 1 (ROCK-I) was < 3 nM throughout.

Turning to `CN(C)CCNC(=O)C(Cc1ccc(Oc2ccnc3[nH]ccc23)cc1)NC(=O)C1CCCCC1` (stereo not shown) [Example 181, N-(3-(4-((1H-pyrrolo[2,3-b]pyridin-4-yl)oxy)phenyl)-1-((2-(dimethylamino)ethyl)amino)-1-oxopropan-2-yl)cyclohexanecarboxamide], the Ki at Rho kinase 2 (ROCK-II) and at Rho kinase 1 (ROCK-I) was > 30 nM each time.
